{"source": "ChEMBL document CHEMBL1150087", "about": "“Structural Revision of Physalin H Isolated from Physalis angulata” (1995)", "system": "HeLa", "test": "Cytotoxicity against human HeLa cells", "type": "functional", "note": "Activity calls are given as the source filed them. The calls are words filed in the database; no cut-off is given here."}
{"smiles": "C[C@@]12C[C@H]3OC(=O)[C@@H]1CO[C@@]14O[C@]5([C@H]2C1=O)[C@@](O)(CC[C@H]1[C@H]4C[C@@H](O)[C@@]2(O)CC=CC(=O)[C@]12C)C(=O)O[C@@]35C", "values": [{"measurement": "ID50", "result": "inactive"}]}
